Results as given in US20090170759A1, “NEUROPROTECTIVE PEPTIDES” (priority 2007, published 2009).

Key:
[1] = tested on: rat cerebral cortical cultures; experiment: Neurite outgrowth assay (MAP2-FITC immunofluorescence), cortical cultures; type: cell-based; settings: figure legends
From the text: (§1) Dissociated hippocampal and cortical cell cultures were established from embryonic day 18 rat fetuses as previously described (Mattson et al., 1994). Briefly, fetuses were removed via cesarean section from pregnant moms (Sprague-Dawley) anesthetized with halothane according to the AVMA Panel on Euthanasia. Pups were decapitated and the brains were removed and placed in HEPES-buffered Hank's Balanced Salt solution (HBSS; Gibco). The hippocampi and cortices were dissected out and pooled according to tissue-type. Tissue was trypsinized for 15 min (1 mg/ml trypsin-HBSS; Worthington), rinsed with fresh HBSS, incubated in trypsin inhibitor (1 mg/ml; Sigma) for 5 min, rinsed again with fresh HBSS and then triturated in 1 ml fresh HBSS with a fire-polished glass pipette. Dissociated cells were seeded at 30,000 cells/well onto poly-D-lysine coated 96-well plates (Collaborative BioScience). Each well contained 100 μl of Eagle's Minimal Essential Media (MEM; Gibco) supplemented with 26 mM NaHCO3 (Sigma), 56 mM glucose (Sigma), 15 mM KCl (Sigma), 1 mM sodium pyruvate (Sigma), 1.1 mM L-glutamine (Sigma), 10% (v/v) heat-inactivated fetal bovine serum (Hyclone), and 0.001% gentamicin sulfate (Sigma) (pH 7.4). Cells were allowed to attach for 24 h in a humidified 37° C. 5% CO2 incubator before experimental treatment. The culture media was aspirated and exchanged with fresh media every three days.
(§2) Twenty-four hours after plating, cultures were treated with vehicle (PBS+0.1% BSA), 100 ng of various growth factors (brain derived neurotrophic factor (BDNF; Promega), glial-derived neurotrophic factor (GDNF; Promega), nerve growth factor (NGF; Boehringer Mannheim), basic fibroblast growth factor (bFGF; Boehringer Mannheim), insulin-like growth factor-1 (IGF-1; Boehringer Mannheim), neurotrophin-3 (NT3; Calbiochem), neurotrophin-4 (NT4; Calbiochem), ciliary neurotrophic factor (CNTF; Calbiochem), epidermal growth factor (EGF; Calbiochem), vascular endothelial growth factor (VEGF; Calbiochem)), or rhEPO (prepared same as above; 10 fM-10 nM)). Each treatment condition was run in quadruplicate or octuplicate. On the third day in culture, the media was aspirated off and replaced with fresh media and test compound. At one week in culture, the cells were fixed with 10% phosphate-buffered formalin for 15 min, then rinsed with DPBS (Sigma) and placed in blocking serum for 30 min (horse serum; 1:50 dilution in DPBS; Vector Labs). Cultures were rinsed again with DPBS and then incubated in primary antibody for 2 hr (microtubule-associated protein-2 (MAP-2) is a selective marker for dendritic processes; anti-mouse monoclonal (Chemicon); 1:1000 dilution of MAP-2 in antibody diluent (Zymed)). Negative control wells were incubated in antibody diluent alone. Background signal was determined by blank wells (cell-free) incubated with or without antibody. Cultures were rinsed again with DPBS and then placed in fluorescein for 1 hr (FITC; anti-mouse IgG; rat adsorbed; 1:50 dilution in DPBS; Vector Labs). Cultures were rinsed a final time with DPBS and then the plates were read on a Cytofluor 4000 fluorescence plate reader. Neurite outgrowth was expressed as percent change from control (vehicle; mean fluorescence±SD).
(§3) Dissociated hippocampal and cortical cell cultures were established from embryonic day 18 rat fetuses as previously described (Mattson et al., 1994). Briefly, fetuses were removed via cesarean section from pregnant moms (Sprague-Dawley) anesthetized with halothane according to the AVMA Panel on Euthanasia. Pups were decapitated and the brains were removed and placed in HEPES-buffered Hank's Balanced Salt solution (HBSS; Gibco). The hippocampi and cortices were dissected out and pooled according to tissue-type. […]

rat hippocampal cultures = experiment: Neurite outgrowth assay (MAP2-FITC immunofluorescence), hippocampal cultures; type: cell-based; settings: for neurite outgrowth in rat hippocampal cultures (in words): figure legends
From the text: as §1, §2, §3

| Sequence | neurite outgrowth in rat cerebral cortical cultures (in words) [1] | neurite outgrowth in rat hippocampal cultures (in words) (rat hippocampal cultures) | neurite outgrowth increase over vehicle at peak activity, hippocampal cultures (rat hippocampal cultures; Example 4, 10 fM-10 nM tested) |
| --- | --- | --- | --- |
| GGTASCHFGPLTWVCKPQGG [EMP-6] | promotes neurite outgrowth | promotes neurite outgrowth |  |
| GGTYSCFGPLTWVCKPQGG [EMP-27] | promotes neurite outgrowth | promotes neurite outgrowth |  |
| GGTYSCHFAPLTWVCKPQGG [EMP-9] | promotes neurite outgrowth | promotes neurite outgrowth |  |
| GGTYSCHFGPLTWVCKPQGG [EMP-1] | promotes neurite outgrowth | promotes neurite outgrowth |  |
| YCHFGPLTWVC [EMP-23] | promotes neurite outgrowth | promotes neurite outgrowth | 43-46% |
